Results published in US20240059703A1 (AMGEN INC., priority 2021, published 2024).
Like-named read-outs stand apart in the source and are kept apart here.

How the values were obtained:
KRAS G12C = KRAS G12C (Homo sapiens (Human), UniProt P01116, C118A/G12C); test: 2 h coupled exchange assay; assay type: biochemical
Method: The term “2 h coupled exchange assay” or “20 h coupled exchange assay” as used herein refers to the assay described in the Section entitled “BIOLOGICAL EVALUATION.”

[1] = system: MIA PaCa-2 (human pancreatic carcinoma) cells; test: Cell Viability Assay (CellTiter-Glo), MIA PaCa-2; assay type: cell-based
Method: (§1) Serially-diluted compound or DMSO was added to the cells, and plates were incubated at 37° C., 5% CO2 for 72 h. Cell viability was measured using a CellTiter-Glo® Luminescent Cell Viability Assay kit (Promega) according to the manufacturer's protocol. The luminescence signal of treated samples was normalized to DMSO control, and data were analyzed using a 4-parameter logistic model to calculate IC50 values.

[2] = system: A549 (human lung carcinoma) cells; test: Cell Viability Assay (CellTiter-Glo), A549; assay type: cell-based
Method: as §1, with “MIA PaCa-2 (human pancreatic carcinoma; ATCC CRL-1420) or A549 (human lung carcinoma; ATCC CCL-185) cells were cultured in RPMI 1640 medium containing 10% fetal bovine serum and 1× penicillin/streptomycin/L-glutamine. Cells were seeded in 384-well plates at a density of 1.67E+04 cells/mL and incubated at 37° C., 5% CO2, overnight. Serially-diluted” for “Serially-diluted”

[3] = Avg 2 h Coupled exchange IC50, 2 h compound pre-incubation
[4] = read-out: Avg 2 h Coupled exchange IC50, 2 h compound pre-incubation
[5] = Avg 2 h Coupled exchange IC50, 2 h compound pre-incubation, SOS-mediated nucleotide exchange

Chain of KRAS G12C (P01116 other isoform, or with tags, fused parts or gaps G12C/C118A): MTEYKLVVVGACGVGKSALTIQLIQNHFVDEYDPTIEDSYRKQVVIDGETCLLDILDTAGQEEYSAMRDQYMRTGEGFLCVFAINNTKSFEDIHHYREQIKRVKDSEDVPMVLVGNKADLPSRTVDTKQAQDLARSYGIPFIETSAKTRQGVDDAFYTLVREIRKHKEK

With `C=CC(=O)N1CC2(CCN(c3nc4c(c(-c5cccc(F)c5O)c3C)CC[C@@H](c3c(C)cnn3C)C4)C2)C1` [Example 14-94, 1-(6-((7R)-7-(1,4-dimethyl-1H-pyrazol-5-yl)-4-(3-fluoro-2-hydroxyphenyl)-3-methyl-5,6,7,8-tetrahydro-2-quinolinyl)-2,6-diazaspiro[3.4]octan-2-yl)-2-propen-1-one] the IC50 (KRAS G12C; [3]) was 228 nM, the IC50 ([1]; Homo sapiens, MIA PaCa-2, 72 h) was 118 nM and the IC50 ([2]; Homo sapiens, A549, 72 h) was 14400 nM.

`C=CC(=O)N1CC2(CCN(c3nc4c(c(-c5c(C)ccc6cnn(C)c56)c3C)CCN(C3(C)COC3)C4)C2)C1` (atropisomer, axis not shown; (M)) [Example 36-2, (M)-1-(6-(4-(1,6-dimethyl-H-indazol-7-yl)-3-methyl-7-(3-methyl-3-oxetanyl)-5,6,7,8-tetrahydro-1,7-naphthyridin-2-yl)-2,6-diazaspiro[3.4]octan-2-yl)-2-propen-1-one] gave an IC50 (KRAS G12C; [4]) of 87 nM, an IC50 ([1]; 72 h) of 28 nM and an IC50 ([2]; 72 h) of 25000 nM.

For `C=CC(=O)N1CC2(CCN(c3nc4c(c(-c5c(C)ccc6cn[nH]c56)c3C#N)C[C@H]3C[C@@H]4C3(C)C)C2)C1` (single isomer, unassigned) [Example 14-51], the IC50 (KRAS G12C; [3]) was 11 nM, the IC50 ([1]; Homo sapiens, MIA PaCa-2, 72 h) was 18 nM and the IC50 ([2]; Homo sapiens, A549, 72 h) was > 5000 nM.

With `C=CC(=O)N1CC2(CCN(c3cc4c(c(-c5cc(O)cc6ccccc56)c3C#N)OCCC4)C2)C1` (single isomer, unassigned) [Example 2-54, (M)-8-(3-hydroxy-1-naphthalenyl)-6-(2-(2-propenoyl)-2,6-diazaspiro[3.4]octan-6-yl)-3,4-dihydro-2H-chromene-7-carbonitrile] the IC50 (KRAS G12C; [5]) was 28 nM, the IC50 ([1]; Homo sapiens, MIA PaCa-2, 72 h) was 56 nM and the IC50 ([2]; Homo sapiens, A549, 72 h) was > 5000 nM.

In the case of `C=CC(=O)N1CC2(CCN(c3nc4c(c(-c5cccc(F)c5O)c3C)CCN(c3scnc3C)C4)C2)C1` [Example 18-21, 1-(6-(4-(3-fluoro-2-hydroxyphenyl)-3-methyl-7-(4-methyl-1,3-thiazol-5-yl)-5,6,7,8-tetrahydro-1,7-naphthyridin-2-yl)-2,6-diazaspiro[3.4]octan-2-yl)-2-propen-1-one], the IC50 (KRAS G12C; [3]) is reported as 800 nM, the IC50 ([1]; Homo sapiens, MIA PaCa-2, 72 h) is reported as 3370 nM and the IC50 ([2]; Homo sapiens, A549, 72 h) is reported as > 25000 nM.

With `C=CC(=O)N1CC2(CCN(c3nc4c(c(-c5cc(O)ccc5F)c3C#N)CCN(c3scnc3C)C4)C2)C1` [Example 21-19, 4-(2-fluoro-5-hydroxyphenyl)-7-(4-methyl-1,3-thiazol-5-yl)-2-(2-(2-propenoyl)-2.6-diazaspiro[3.4]octan-6-yl)-5,6,7,8-tetrahydro-1,7-naphthyridine-3-carbonitrile] the IC50 (KRAS G12C; [3]) was 35 nM, the IC50 ([1]; Homo sapiens, MIA PaCa-2, 72 h) was 1170 nM and the IC50 ([2]; Homo sapiens, A549, 72 h) was > 5000 nM.

With `C=CC(=O)N1CC2(C1)CN(c1nc3c(F)cccc3c(-c3c(C)ccc4[nH]ncc34)c1C#N)CC2(F)F` [Example 1-39, 2-(8,8-difluoro-2-(2-propenoyl)-2,6-diazaspiro[3.4]octan-6-yl)-8-fluoro-4-(5-methyl-1H-indazol-4-yl)-3-quinolinecarbonitrile] the IC50 (KRAS G12C; [5]) was 757 nM, the IC50 ([1]; Homo sapiens, MIA PaCa-2, 72 h) was 2740 nM and the IC50 ([2]; Homo sapiens, A549, 72 h) was 6250 nM.

In the case of `C=CC(=O)N1CC2(CCN(c3nc4c(c(-c5c(C)ccc6cnn(C)c56)c3C#N)C[C@H]3C[C@@H]4C3)C2)C1` (single isomer, unassigned) [Example 13-118], the IC50 (KRAS G12C; [5]) is reported as 72 nM, the IC50 ([1]; Homo sapiens, MIA PaCa-2, 72 h) is reported as 279 nM and the IC50 ([2]; Homo sapiens, A549, 72 h) is reported as > 5000 nM.

In the case of `C=CC(=O)N1CC2(CCN(c3nc4c(c(-c5c(C)ccc6cnn(C)c56)c3C#N)[C@H]3C[C@@H](C4)C3)C2)C1` (single isomer, unassigned) [Example 13-133], the IC50 (KRAS G12C; [5]) is reported as 64 nM, the IC50 ([1]; Homo sapiens, MIA PaCa-2, 72 h) is reported as 200 nM and the IC50 ([2]; Homo sapiens, A549, 72 h) is reported as > 5000 nM.

In the case of `C=CC(=O)N1CC2(CCN(c3nc4c(c(-c5ccc(F)cc5F)c3C#N)CCN(C(C)C)C4)C2)C1` [Example 21-27, 4-(2,4-difluorophenyl)-7-(2-propanyl)-2-(2-(2-propenoyl)-2,6-diazaspiro[3.4]octan-6-yl)-5,6,7,8-tetrahydro-1,7-naphthyridine-3-carbonitrile], the IC50 (KRAS G12C; [3]) is reported as 918 nM, the IC50 ([1]; Homo sapiens, MIA PaCa-2, 72 h) is reported as 2990 nM and the IC50 ([2]; Homo sapiens, A549, 72 h) is reported as 16500 nM.

`C=CC(=O)N1CC2(CCN(c3nc4c(c(-c5ncccc5C)c3C#N)CC[C@](C)(c3scnc3C)C4)C2)C1` [Example 23-9, (7S)-7-methyl-4-(3-methyl-2-pyridinyl)-7-(4-methyl-1,3-thiazol-5-yl)-2-(2-(2-propenoyl)-2,6-diazaspiro[3.4]octan-6-yl)-5,6,7,8-tetrahydro-3-quinolinecarbonitrile] was tested, and the IC50 (KRAS G12C; [3]) was 531 nM, the IC50 ([1]; Homo sapiens, MIA PaCa-2, 72 h) was 916 nM and the IC50 ([2]; Homo sapiens, A549, 72 h) was 16200 nM.

Work on `C=CC(=O)N1CC2(CCN(c3nc4c(c(-c5ccc(F)cc5Cl)c3C#N)COC(c3scnc3C)C4)C2)C1` [Example 23-20, (7R)-4-(2-chloro-4-fluorophenyl)-7-(4-methyl-1,3-thiazol-5-yl)-2-(2-(2-propenoyl)-2,6-diazaspiro[3.4]octan-6-yl)-7,8-dihydro-5H-pyrano[4,3-b]pyridine-3-carbonitrile (7S)-4-(2-chloro-4-fluorophenyl)-7-(4-methyl-1,3-thiazol-5-yl)-2-(2-(2-propenoyl)-2,6-diazaspiro[3.4]octan-6-yl)-7,8-dihydro-5H-pyrano[4,3-b]pyridine-3-carbonitrile] yielded an IC50 (KRAS G12C; [3]) of 227 nM, an IC50 ([1]; Homo sapiens, MIA PaCa-2, 72 h) of 1150 nM and an IC50 ([2]; Homo sapiens, A549, 72 h) of 8250 nM.

In the case of `C=CC(=O)N1CC2(CCN(c3nc4cc(-c5scnc5C)ccc4c(-c4ccccc4Cl)c3C#N)C2)C1` (single isomer, unassigned) [Example 20-3, (M)-4-(2-chlorophenyl)-7-(4-methyl-1,3-thiazol-5-yl)-2-(2-(2-propenoyl)-2,6-diazaspiro[3.4]octan-6-yl)-3-quinolinecarbonitrile], the IC50 (KRAS G12C; [3]) is reported as 277 nM, the IC50 ([1]; 72 h) is reported as 2180 nM and the IC50 ([2]; Homo sapiens, A549, 72 h) is reported as > 5000 nM.

With `C=CC(=O)N1CC2(CCN(c3nc4c(c(-c5ccc(F)cc5Cl)c3C#N)CO[C@@H](c3scnc3C)C4)C2)C1` [Example 23-27, (7R)-4-(2-chloro-4-fluorophenyl)-7-(4-methyl-1,3-thiazol-5-yl)-2-(2-(2-propenoyl)-2,6-diazaspiro[3.4]octan-6-yl)-7,8-dihydro-5H-pyrano[4,3-b]pyridine-3-carbonitrile] the IC50 (KRAS G12C; [3]) was 97 nM, the IC50 ([1]; Homo sapiens, MIA PaCa-2, 72 h) was 776 nM and the IC50 ([2]; Homo sapiens, A549, 72 h) was > 5000 nM.

For `C=CC(=O)N1CC2(CCN(c3nc4c(c(-c5c(C)ccc6cnn(C)c56)c3C#N)C[C@H]3C[C@@H]4C3(C)C)C2)C1` [Example 13-104, (1R,9R)-6-(1,6-dimethyl-1H-indazol-7-yl)-10,10-dimethyl-4-(2-(2-propenoyl)-2,6-diazaspiro[3.4]octan-6-yl)-3-azatricyclo[7.1.1.0^2,7]undeca-2,4,6-triene-5-carbonitrile], the IC50 (KRAS G12C; [5]) was 97 nM, the IC50 ([1]; Homo sapiens, MIA PaCa-2, 72 h) was 1340 nM and the IC50 ([2]; Homo sapiens, A549, 72 h) was > 5000 nM.

In the case of `C=CC(=O)N1CC2(CCN(c3nc4c(c(-c5ccccc5F)c3C#N)CCN(c3nccn3C)C4)C2)C1` [Example 34-1, 4-(2-fluorophenyl)-7-(1-methyl-1H-imidazol-2-yl)-2-(2-(2-propenoyl)-2,6-diazaspiro[3.4]octan-6-yl)-5,6,7,8-tetrahydro-1,7-naphthyridine-3-carbonitrile], the IC50 (KRAS G12C; [3]) is reported as 814 nM, the IC50 ([1]; Homo sapiens, MIA PaCa-2, 72 h) is reported as 3510 nM and the IC50 ([2]; Homo sapiens, A549, 72 h) is reported as 14100 nM.

`C=CC(=O)N1CC2(CCN(c3nc4c(c(-c5c(C)ccc6cnn(C)c56)c3C#N)CO[C@@H](C3CC3)C4)C2)C1` (single isomer, unassigned) [Example 13-122] was tested, and the IC50 (KRAS G12C; [5]) was 299 nM, the IC50 ([1]; Homo sapiens, MIA PaCa-2, 72 h) was 1080 nM and the IC50 ([2]; Homo sapiens, A549, 72 h) was > 5000 nM.

`C=CC(=O)N1CC2(CCN(c3nc4c(c(-c5c(C)ccc6cn[nH]c56)c3C)CC[C@H](c3c(C)cnn3C)C4)C2)C1` (single isomer, unassigned) [Example 14-97] gave an IC50 (KRAS G12C; [3]) of 208 nM, an IC50 ([1]; Homo sapiens, MIA PaCa-2, 72 h) of 254 nM and an IC50 ([2]; Homo sapiens, A549, 72 h) of 10000 nM.

For `C=CC(=O)N1CC2(CCN(c3nc4c(c(-c5c(C)ccc6[nH]ncc56)c3C)CCN(C(C)C)C4)C2)C1` (single isomer, unassigned) [Example 18-22, (M)-1-(6-(3-methyl-4-(5-methyl-1H-indazol-4-yl)-7-(2-propanyl)-5,6,7,8-tetrahydro-1,7-naphthyridin-2-yl)-2,6-diazaspiro[3.4]octan-2-yl)-2-propen-1-one], the IC50 (KRAS G12C; [3]) was 6880 nM, the IC50 ([1]; 72 h) was 804 nM and the IC50 ([2]; 72 h) was > 20000 nM.

`C=CC(=O)N1CC2(CCN(c3nc4ccccc4c(-c4c(C)ccc5[nH]ncc45)c3C=C)C2)C1` (atropisomer, axis not shown; (P)) [Example 26-1, (P)-1-(6-(3-ethenyl-4-(5-methyl-1H-indazol-4-yl)-2-quinolinyl)-2,6-diazaspiro[3.4]octan-2-yl)-2-propen-1-one] was tested, and the IC50 (KRAS G12C; [4]) was 140 nM, the IC50 ([1]; 72 h) was 919 nM and the IC50 ([2]; 72 h) was > 5000 nM.

`C=CC(=O)N1CC2(CCN(c3nc4c(c(-c5ccccc5F)c3C#N)CCC(c3scnc3C)=C4)C2)C1` [Example 23-7, 4-(2-fluorophenyl)-7-(4-methyl-1,3-thiazol-5-yl)-2-(2-(2-propenoyl)-2,6-diazaspiro[3.4]octan-6-yl)-5,6-dihydro-3-quinolinecarbonitrile] showed an IC50 (KRAS G12C; [3]) of 72 nM, an IC50 ([1]; Homo sapiens, MIA PaCa-2, 72 h) of 918 nM and an IC50 ([2]; Homo sapiens, A549, 72 h) of 3690 nM.
